Values quoted from earlier work, collected in patent publication US20130251697A1, “NOVEL NASAL SPRAY” (priority 2009, published 2013).

Test system: SIRT1
Settings: life extending genes

Structure (SMILES): Oc1ccc(C=Cc2cc(O)cc(O)c2)cc1 [Resveratrol]
- increases genes SIRT1 expression: up to 13 fold
